Data set [1] concerns the target T1, C5a anaphylatoxin chemotactic receptor 1 (Homo sapiens, UniProt P21730).
T1 sequence (P21730 whole entry): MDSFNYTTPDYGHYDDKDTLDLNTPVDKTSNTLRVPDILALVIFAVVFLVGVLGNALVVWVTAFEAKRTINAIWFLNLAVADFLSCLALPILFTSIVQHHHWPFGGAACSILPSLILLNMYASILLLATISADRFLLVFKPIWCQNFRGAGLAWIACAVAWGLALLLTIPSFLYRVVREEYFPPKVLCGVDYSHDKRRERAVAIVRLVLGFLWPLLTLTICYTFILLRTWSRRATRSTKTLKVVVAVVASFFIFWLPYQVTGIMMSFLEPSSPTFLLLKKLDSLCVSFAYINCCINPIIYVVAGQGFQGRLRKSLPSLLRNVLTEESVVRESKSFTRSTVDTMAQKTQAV
Description: Antagonist activity at human recombinant C5a receptor in U937 cells assessed as inhibition of C5a-induced calcium mobilization by FLIPR assay. It is filed as functional, cell-based, U-937. Background: Calcium flux is commonly read through the fluorescence of an indicator in the cells.

The target in data set [2] is T1, C5a anaphylatoxin chemotactic receptor 1. Description: Displacement of [125I]C5a from human recombinant C5a receptor in U937 cells. It is filed as cell-based, U-937.
Data set [3] can be described thus: Half life in rat at 2 mg/kg, iv. Set-up: dose 2 mg/kg, route intravenous. The note with it: in vivo. It is filed as ADME, organism-based.
Data set [4] is described as follows: Half life in rat at 10 mg/kg, po. Also noted: dose 10 mg/kg, route oral. It is filed as ADME, organism-based. The note with it: in vivo.
In data set [5] the test system is Rattus norvegicus. Briefly: AUC in rat at 10 mg/kg, po. The note with it: in vivo. Type of data set: ADME, organism-based, Plasma. Also noted: dose 10 mg/kg, route oral.
Data set [6] in a line: Clearance in rat at 2 mg/kg, iv. The note with it: in vivo. Set-up: dose 2 mg/kg, route intravenous. Type of data set: ADME, organism-based.
Data set [7] is described as follows: Volume of distribution at steady state in rat at 2 mg/kg, iv. It is filed as ADME, organism-based. To be noted: in vivo, read-out: Vdss. Set-up: dose 2 mg/kg, route intravenous.
Data set [8] is described as follows: Oral bioavailability in rat at 10 mg/kg. It is filed as ADME, organism-based. The note with it: in vivo.
For data set [9], the system named is Rattus norvegicus. Description: Cmax in rat at 10 mg/kg, po. It is filed as ADME, organism-based. Set-up: dose 10 mg/kg, route oral. The note with it: in vivo.

The IC50 is the concentration at which inhibition is half-maximal. As a reminder, the Ki is a dissociation constant, usually derived from enzyme kinetics or from competition with a known ligand. For orientation: half-life means the time needed for the level to fall by half in the phase considered. A low value points to fast loss. As a reminder, the AUC is concentration integrated over time. One may read the clearance as the volume of plasma or blood freed of the substance per unit of time. Low values mean inefficient removal, high ones efficient removal. As usually defined, the bioavailability is dose-corrected exposure relative to a reference, in per cent. Lower therefore signals little systemic uptake. By Cmax is commonly meant the peak of the concentration-time curve.

A value given as a limit tells only on which side of the number the result lay.

With `CCc1cccc(CC)c1-c1cc(OC)c2c(n1)CCCC2Nc1cc(F)ccc1C` (stereo unspecified), the IC50 in data set [1] was determined as 1400 nM.

On to `CCc1cccc(CC)c1-c1cc(OC)c2c(n1)CCCC2Nc1cc(-c2ccccc2)ccc1C` (stereo unspecified), for which the half-maximal inhibitory concentration (IC50) in data set [1] stood at 2500 nM. On the same count and under the same terms, as for `CCc1cccc(CC)c1-c1cc(OC)c2c(n1)CCCC2Nc1cc(OC)ccc1-c1ccccc1` (stereo unspecified), the figure is > 10000 nM; as for `CCc1cccc(CC)c1-c1cc(OC)c2c(n1)CCCC2Nc1cc(O)ccc1C` (stereo unspecified), > 10000 nM. On the same count and under the same terms, in the case of `CCc1cccc(CC)c1-c1cc(OC)c2c(n1)CCCC2Nc1ccc(OC)cc1C` (stereo unspecified) it was 2400 nM. With `CCc1cccc(CC)c1-c1cc(OC)c2c(n1)CCCC2Nc1ccccc1CCO` (stereo unspecified), in data set [2], the Ki worked out at 21 nM. In the case of `CCc1cccc(CC)c1-c1cc(OC)c2c(n1)CCCC2Nc1ccccc1C(C)=O` (stereo unspecified), in data set [1], the IC50 is > 10000 nM. The same measure, in the same setting: in the case of `CCc1cccc(CC)c1-c1cc(OC)c2c(n1)CCCC2Nc1ccccc1C(=O)OC` (stereo unspecified) it was > 10000 nM. Take `CCc1cccc(CC)c1-c1cc(OC)c2c(n1)CCCC2Nc1cc(OC)ccc1C` (stereo unspecified): in data set [1], the IC50 worked out at 140 nM. Also, the half-life is 378 min in [3] and 318 min in data set [4]. This compound also returned an AUC in the data set with Rattus norvegicus [5] of 700 ng·h/mL. In data set [6], this compound had a clearance of 21 mL/min/kg. For the same compound, the Vd in data set [7] was 4.5 L/kg. For the same compound, the bioavailability in data set [8] was 21%. In the data set with Rattus norvegicus [9], the peak concentration (Cmax) amounted to 0.29 µg/mL. With `CCc1cccc(CC)c1-c1cc(OC)c2c(n1)CCCC2Nc1ccccc1CO` (stereo unspecified), the IC50 in data set [1] came to 120 nM. Same read-out and setting: as for `CCc1cccc(CC)c1-c1cc(OC)c2c(n1)CCCC2Nc1cc(C)ccc1C` (stereo unspecified), the figure is 430 nM; as for `CCc1cccc(CC)c1-c1cc(OC)c2c(n1)CCCC2Nc1cc(CO)ccc1C` (stereo unspecified), > 10000 nM; as for `CCc1cccc(CC)c1-c1cc(OC)c2c(n1)CCCC2Nc1ccccc1C(N)=O` (stereo unspecified), > 10000 nM. On the same count and under the same terms, as for `CCc1cccc(CC)c1-c1cc(OC(C)C)c2c(n1)CCCC2Nc1ccccc1CCO` (racemic), the figure is 7 nM; as for `CCc1cccc(CC)c1-c1cc(OC)c2c(n1)CCCC2N(C)c1cc(OC)ccc1OC` (racemic), 2600 nM. For `COc1cc(-c2c(C)cccc2C)nc2c1C(N(C)c1c(C)cccc1C)CCC2` (racemic), in data set [1], the IC50 was > 10000 nM. Regarding `COc1cccc(N(C)C2CCCc3nc(-c4c(C)cccc4C)cc(OC)c32)c1C` (racemic), the IC50 in data set [1] was > 10000 nM. Still for that read-out and setting: in the case of `CCc1cccc(CC)c1-c1cc(OC)c2c(n1)CCCC2N(C)c1cc(-c2ccccc2)ccc1C` (racemic) it was > 10000 nM. For `CCc1cccc(CC)c1-c1cc(OC)c2c(n1)CCCC2N(C)c1cc(Cl)ccc1C` (racemic), the IC50 in data set [1] amounted to 2600 nM.

Source of the values: ChEMBL document CHEMBL1155122, “Design and optimization of aniline-substituted tetrahydroquinoline C5a receptor antagonists” (Bioorg Med Chem Lett, 2008).
